Our source for the first-phase pharmacokinetic half-life and EC50 values is patent US20250066344A1 (BRISTOL-MYERS SQUIBB COMPANY, priority 2021, published 2025).

The conditions of series [1]: intravenous (IV) formulation; cited from earlier work.
The target of the next series is T1, human RXFP1 (Homo sapiens, UniProt Q9HBX9).
T1 construct: expressed in transfected cells
T1 sequence (Q9HBX9 1-757): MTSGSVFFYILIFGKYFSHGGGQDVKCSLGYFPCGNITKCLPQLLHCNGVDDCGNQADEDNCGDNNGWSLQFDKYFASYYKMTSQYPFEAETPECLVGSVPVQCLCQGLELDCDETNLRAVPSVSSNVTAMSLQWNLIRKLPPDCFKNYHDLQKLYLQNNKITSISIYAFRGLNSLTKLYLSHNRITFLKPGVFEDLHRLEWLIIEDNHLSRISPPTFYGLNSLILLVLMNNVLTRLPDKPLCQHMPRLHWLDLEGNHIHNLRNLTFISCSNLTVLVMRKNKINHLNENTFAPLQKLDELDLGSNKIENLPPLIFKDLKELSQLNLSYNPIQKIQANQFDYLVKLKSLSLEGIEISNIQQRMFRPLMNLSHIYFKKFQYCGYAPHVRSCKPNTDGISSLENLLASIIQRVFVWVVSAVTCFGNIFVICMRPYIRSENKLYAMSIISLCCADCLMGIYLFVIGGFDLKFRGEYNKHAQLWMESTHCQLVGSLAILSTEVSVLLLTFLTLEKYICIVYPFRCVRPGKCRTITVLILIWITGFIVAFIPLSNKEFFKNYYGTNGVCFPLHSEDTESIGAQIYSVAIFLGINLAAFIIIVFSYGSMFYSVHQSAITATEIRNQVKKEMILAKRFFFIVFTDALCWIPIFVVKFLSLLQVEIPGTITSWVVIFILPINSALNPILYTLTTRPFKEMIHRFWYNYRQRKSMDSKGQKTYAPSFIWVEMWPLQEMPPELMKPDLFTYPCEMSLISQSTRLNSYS
As to the kind of experiment: RXFP1 cyclic adenosine monophosphate (cAMP) assay, hRXFP1 HEK293. In kind it is cell-based. The note with it: HEK293 cells stably expressing human RXFP1; 30 min at room temperature; HTRF cAMP. Put shortly:
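HEK293 cells stably expressing human RXFP1 were exposed to compounds (0.010 nM–50 μM, 2% DMSO) for 30 min at room temperature in HBSS/HEPES buffer with 0.5 mM IBMX. Intracellular cAMP was measured by HTRF against a cAMP standard curve; EC50 from 4-parameter logistic fit.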
(Time-resolved FRET reads energy transfer from a long-lived donor to a nearby acceptor.)

Regarding Serelaxin, the first-phase pharmacokinetic half-life in series [1] was 5.4 min.
As for `COc1ccc(C2=NOC3C4CCC(C4)C23)cc1C(=O)Nc1cc2nc(C)sc2cc1C(=O)Nc1ccc(F)c(C(F)(F)F)c1` (stereo not shown) [Example 10, N-(4-fluoro-3-(trifluorometh-yl)phenyl)-5-(5-(3a,4,5,6,7,7a-hexahydro-4,7-methano-benzo[d]isox-azol-3-yl)-2-methoxybenz-amido)-2-methylbenzo [d]thiazole-6-carboxamide], the EC50 – broadly, the concentration that produces a half-maximal response – on human RXFP1 was found to be 0.13 µM.
Regarding `COc1ccc(C(=O)N2CC(C)(O)C2)cc1C(=O)Nc1cc2c(cc1C(=O)Nc1ccc(F)c(C(F)(F)F)c1)OC(F)(F)O2` [Example 39, 2,2-difluoro-N-(4-fluoro-3-(trifluoromethyl)phenyl)-6-(5-(3-hydroxy-3-methylazetidine-1-carbonyl)-2-methoxybenzamido) benzo[d][1,3]dioxole-5-carboxamide], the EC50 at human RXFP1 worked out at 0.09 µM.
At human RXFP1, `COc1ccc(-c2cncc(S(=O)(=O)NC(C)(C)C)c2)cc1C(=O)Nc1cc2c(cc1C(=O)Nc1ccc(F)c(C(F)(F)F)c1)OC(F)(F)O2` [Example 70, 6-(5-(5-(N-(tert-butyl)sulfamoyl)pyridin-3-yl)-2-methoxybenzamido)-2,2-difluoro-N-(4-fluoro-3-(trifluoromethyl)phenyl) benzo[d][1,3]dioxole-5-carboxamide] gave an EC50 of 0.132 µM.
